Measured values: patent publication US20090182031A1, “Reduction of Hair Growth” (The Gillette Company, a Delaware corporation, priority 2004, published 2009)

Tested on: human hair follicles
Test: Human hair follicle growth assay
Format: cell-based
Conditions: for % Reduction (hair growth): versus control
Text: Human skin was obtained from a plastic surgeon as a by-product of face-lift procedures. The skin samples generally consisted of haired and non-haired regions taken from the area of the face. Immediately after removal, the skin was placed in Williams E medium containing antibiotics, and kept refrigerated. The Williams E medium was commercially obtained (Life Technologies, Gaithersburg, Md.), and has been formulated with essential nutrients for maintaining viability of hair follicle in an in-vitro environment.
Human hair follicles in growth phase (anagen) were isolated from face-lift tissue under a dissecting scope using a scalpel and watchmakers forceps. The skin was sliced into thin strips exposing 2-3 rows of follicles that could readily be dissected. Follicles were placed into 0.5 ml Williams E medium supplemented with 2 mM L-glutamine, 10 ug/ml insulin, 10 ng/ml hydrocortisone, 100 units penicillin, 0.1 mg/ml streptomycin and 0.25 μg/ml amphotericin B. The follicles were incubated in 24 well plates (1 follicle/well) at 37° C. in an atmosphere of 5% CO2 and 95% air. Hair follicle images were taken in the 24-well plates under the dissecting scope under a power of 20×. Hair follicle lengths were measured on day 0 (day follicles were placed in culture) and again on day 6-7. In this system follicles appear to fully differentiate into a hair fiber and increase in length at a rate similar to the human, in vivo, rate of about 0.3 mm/day. For testing inhibitors of heat shock proteins, the inhibitors or anti-HSP antibody were included in the culture medium from time 0 and remained in the medium throughout the course of the experiment.

SMILES | % Reduction (hair growth) (0.1 μM, day 0 to day 6) [%] | Length Increase (mm) (0.1 μM, follicle length day 6 minus day 0) | % Reduction (hair growth) (1 μM, day 0 to day 6) [%] | Length Increase (mm) (1 μM, follicle length day 6 minus day 0) | reduction of hair growth (submicromolar dose) | % Reduction (hair growth) (10 μM, day 0 to day 5) [%] | Length Increase (mm) (10 μM, follicle length day 5 minus day 0) | % Reduction (hair growth) (50 μM, day 0 to day 5) [%] | Length Increase (mm) (50 μM, follicle length day 5 minus day 0)
COC1=C2C[C@@H](C)C[C@H](OC)[C@H](O)[C@@H](C)/C=C(\C)[C@H](OC(N)=O)[C@@H](OC)/C=C\C=C(/C)C(=O)NC(=CC1=O)C2=O [Geldanamycin, 2-Azabicyclo[16.3.1]docosa-4,6,10,18,21-pentaene-3,20,22-trione, 9,13-dihydroxy-8,14,19-trimethoxy-4,10,12,16-tetramethyl-, 9-carbamate (8CI)] | 52 | 0.55 ± 0.13 | 74 | 0.30 ± 0.08 | over 50% |  |  |  | 
O=CN1CCC(=Cc2ccc3c(c2)OCO3)C1=O [KNK 437, 1-Pyrrolidinecarboxaldehyde, 3-(1,3-benzodioxol-5-ylmethylene)-2-oxo-(9CI)] |  |  |  |  |  | 57 | 0.75 ± 0.13 | 80 | 0.35 ± 0.12
